# Several values for one entry are separate records, joined by “and”; a condition that tells them apart may be missing. Equal values may be shown once.
# What was measured:
# [1] = tested on: Igf2bp1-cMyc RNA interaction; set-up: method as in PMID 28846937; settings: fluorescence polarization; cited from earlier work
# [2] = set-up: method as in PMID 28846937; settings: cited from earlier work
# [3] = target: T1, Igf2bp1 (Homo sapiens, UniProt Q9NZI8); assay: Fluorescence polarization (FP) assay of Igf2bp1 binding to fluorescent Kras 6 RNA; settings: FP dose response; read-out: IC50, inhibition of Igf2bp1 binding to Kras 6 RNA
# T1 construct: Recombinant full-length Igf2bp1 protein was labelled with RED-tris-NTA dye; made in house
# T1 sequence (Q9NZI8 whole entry): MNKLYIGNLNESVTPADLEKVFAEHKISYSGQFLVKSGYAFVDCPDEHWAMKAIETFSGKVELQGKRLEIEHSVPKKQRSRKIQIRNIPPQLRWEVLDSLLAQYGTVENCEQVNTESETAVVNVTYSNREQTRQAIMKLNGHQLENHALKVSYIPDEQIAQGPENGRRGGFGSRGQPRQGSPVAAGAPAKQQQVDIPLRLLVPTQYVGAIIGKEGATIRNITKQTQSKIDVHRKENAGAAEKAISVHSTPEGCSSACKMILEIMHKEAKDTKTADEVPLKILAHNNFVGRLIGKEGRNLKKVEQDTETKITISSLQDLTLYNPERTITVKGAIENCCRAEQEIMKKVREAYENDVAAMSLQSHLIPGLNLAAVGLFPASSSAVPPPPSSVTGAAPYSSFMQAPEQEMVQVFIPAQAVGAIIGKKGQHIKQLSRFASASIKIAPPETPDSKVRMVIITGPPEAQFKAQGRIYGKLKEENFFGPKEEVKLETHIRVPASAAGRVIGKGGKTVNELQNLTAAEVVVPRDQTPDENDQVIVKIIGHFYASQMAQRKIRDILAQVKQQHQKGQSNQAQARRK
# Description: For the small-molecule screen, compounds were obtained from the collection maintained at the Grand Israel National Center for Personalized Medicine, consisting of molecules purchased from commercial vendors. Labelled RNA (10 nM) was incubated with recombinant Igf2bp1 protein (400 nM) in FAM-RNA buffer (10 mM Tris pH 8.0, 75 mM KCl, 0.5 mM EDTA, 1 mM DTT, 0.0188 U/μL RNAsin, 0.0005 μg/mL heparin, 0.0001 μg/μL tRNA, 0.01% Triton X-100, 3 mM MgCl2, 0.05% IGEPAL) at room temperature for 15 min. 7 μL of this reaction mix was aliquoted with GNF WDII (USA) into wells of 1536 well plates, with a final concentration of 20 μM compound or DMSO. The plates were spun down and read in a BMG Pherastar FS (Germany) plate reader, in FP mode with a 485/520/520 polarization filter, calibrated to 35 mP for free fluorescein with similar total intensity as experimental samples. […]
# To determine the quality of our screening assay, the Z’ factor for each plate was calculated with a Z’ factor greater than 0.5 indicating a robust assay suitable for high throughput screening. Compounds that altered the overall fluorescence intensity compared to controls were considered auto florescence and excluded from further analysis. […] Any small molecule that causes a change of more than three standard deviations from the mean is determined appropriate for further investigation.
# [4] = target: T1, Igf2bp1; assay: Microscale thermophoresis (MST), full-length Igf2bp1; settings: full-length protein, read-out: KD of compound binding to Igf2bp1
# Description: Recombinant full-length Igf2bp1 protein was labelled with RED-tris-NTA dye using a Monolith NT His-Tag Labelling Kit (NanoTemper) while RRM12, KH12 and KH34 di-domain peptides were labelled using the Protein Labelling Kit RED NHS 2nd generation (NanoTemper). Labelled proteins were spun at 15,000 g for 5 min to eliminate aggregates. All samples were 2X labelled protein mix of Igf2bp1 (200 nM) in PBST and were combined (1:1) with serial dilutions of compound or Kras6 RNA in binding buffer (10mMTris pH = 7.5, 100 mM NaCl, 0.1 mM EDTA, 0.06% IPEGAL, 0.02 μg/μL tRNA, 2 mM DTT, 0.1 μg/μL heparin) in final volume of 20 μL, room temperature for 15 min. Samples were then loaded into standard capillaries (NanoTemper) and read in the Monolith NT.115 scanner (NanoTemper) using the red filter with reading conditions of 95% LED power and 40% MST power, 5 sec fluorescence before, 30 sec MST on, 5 sec fluorescence after and 25 sec delay between samples. Results were analysed using the MO Control software (NanoTemper) for curve fitting to KD.
# [5] = target: T1, Igf2bp1; assay: EMSA, Igf2bp1 with fluorescent Kras 6 RNA; format: binding; settings: compound pre-incubated with protein; 7773 at 200 μM
# Description: Recombinant Igf2bp1 protein was serially diluted (1:1) starting at an initial concentration of 10,000 nM in 0.75 μg heparin, in a total volume of 13 μL. […] 2 μL RNA was added to each well protein sample, and after a 30 min incubation at room temperature in the dark, loading dye (3 μL) (30% glycerol, 0.01% bromocresol green) was added to each mixture. For compound inhibition experiments, compounds or DMSO were incubated for 4 hours at 37 °C with the protein prior to adding the RNA. Samples were electrophoresed on native TBE polyacrylamide gels (6% acrylamide/bis-acrylamide 37.5:1, 0.5X TBE) that had been pre-run for 30 min. Gels were run at 120 V in 0.5X TBE, at 4°C in the dark. They were then carefully washed and scanned using a Typhoon FLA9500 imager using Alexa 488 laser and LPB1/2 filter. Igf2bp1-RNA complex formation was quantified using the ImageJ software. Prism6 software was used for curve fitting and KD calculations.
IC50 [3] [µM],Kd [4],Compound,Inhibition of Igf2bp1-cMyc RNA interaction in vitro [1],Effect on cell proliferation [2],Inhibition of Igf2bp1 binding to Kras 6 RNA (gel shift) [5]
,,NC(=O)c1ccccc1N=Cc1ccc(Br)s1 [BTYNB],inhibited Igf2bp1-cMyc RNA interaction in vitro,appears to inhibit cell proliferation,
~90,> 100 µM and ~120 µM,O=C(c1cccc(-n2cnnn2)c1)N1CCCC(Nc2ccc3c(c2)OCO3)C1 (centres unmarked) [compound 393],,,"lower, but observable, inhibition of RNA binding"
